Test results published in patent US8492420B2, “Use of purine derivatives for the production of medicaments for the treatment of mucoviscidosis and diseases related to protein addressing errors in cells” (Centre National de la Recherche Scientifique-CNRS, priority 2004, dated 2013).
“Also recorded” adds a separate entry of the source. Read-outs that look alike come from different tables or passages of the source.

How the values were obtained:
delF508-CFTR [1] = target: T1, delF508-CFTR (Homo sapiens, UniProt P13569, DEL508-508); test: Iodide efflux test of delF508 addressing in CF15 cells
Procedure: These cells will therefore overexpress the CFTR protein. • Culture medium: MEM alpha medium (GIBCO)+7% foetal calf serum+0.5% penicilline/streptomycin+100 μM methotrexate (amethopterine, Sigma). • CF15 cells: CF15 cells are human nasal epithelial cells expressing the ΔF508-CFTR gene. • Culture medium: DMEM+HAM F12 medium+10% FCS+0.6% penicilline/streptomycin+growth factors (5 μg/ml insulin, 5 μg/ml transferrin, 5.5 μM epinephrin, 0.18 mM adenine, 10 ng/ml EGF, 2 nM T3, 1.1 μM hydrocortisone). • Calu-3 cells: Calu-3 cells are human lung epithelial cells expressing the wild-type CFTR gene. • Culture medium: DMEM/F12 medium with glutamax+7% foetal calf serum+1% penicillin/streptomycin.
Measurements of chloride ion transport in the cells were performed using the radioactive iodide efflux technique (Becq and al., 1999; Dormer and al., 2001). The ^125I tracer is incorporated into the intracellular milieu. The quantity of radiotracer coming out of the cell is then measured after adding various pharmacological agents. Iodide is used as a tracer of chloride ion transport. ^125I has the advantage of being short-lived compared to other markers such as ^35CI (respective half-lives: 30 days and 300,000 years).
The cells are incubated in an appropriate medium in 24-well plates. The cells are rinsed twice with efflux medium (136.6 mM NaCl, 5.4 mM KCl, 0.3 mM KH2PO4, 0.3 mM NaH2PO4, 4.2 mM NaHCO3, 1.3 mM CaCl2, 0.5 mM MgCl2, 0.4 mM MgSO4, 10 mM HEPES, 5.6 mM D-glucose) in order to eliminate dead cells, which release radioactivity in an anarchic fashion. The cells are then incubated with a 500-μl load (1 μCi/ml ^125INa) for 30 min for CHO-WT or 1 hr for CF15 and Calu-3 cells. The iodide equilibrates on either side of the cell membrane. The following steps are performed using a MultiPROBE probe (Packard): the loading medium is rinsed with efflux medium in order to eliminate extracellular radioactivity. The supernatant is collected every minute into haemolysis tubes and the medium is replaced by an equivalent volume of medium (500 μl). No drug is added to the samples taken in the first three minutes in order to obtain a stable baseline characterising the passive exit of I ions. The 7 samples that follow are obtained in the presence of the molecule to be tested. At the end of the experiment, the cells are lysed by adding 500 μl of 0.1 N NaOH/0.1% SDS (30 min), which allows determining the level of radioactivity remaining inside the cell. The radioactivity present in the haemolysis tubes is measured as counts per minute (cpm) using a Cobra II gamma counter (Packard). The results (cpm) are expressed as velocity of radioactive iodide efflux (R) according to the formula: R (min^−1)=[In(^125I t1)−In(^125I t2)]/(t1−t2) where ^125I t1=at time t1 and ^125I t2=at time t2. This iodide flux is represented by a graph. In order to quantify the iodide efflux due to administration of the tested molecule, the relative flux is calculated as follows in order to ignore the basal flux: Relative velocity (min^−1)=Rpeak−Rbasal. […] The results are presented in the form of a mean +/−SEM. Student's statistical test is used to compare the effect of the various drugs with the controls (the corresponding P<0.01 values are considered to be statistically significant).
For each experiment, the addition of a cocktail (10 μM Forskoline+30 μM Genisteine) allows activation of the CFTR when the latter is localised in the membrane. This allows an iodide efflux to be observed if delF508 addressing has been restored.

delF508-CFTR [2] = target: T1, delF508-CFTR; test: Immunoprecipitation and Western-Blot of delF508-CFTR in CF15 cells; assay type: cell-based; parameters: CF15 human lung epithelial cells homozygous for the delF508 deletion; endogenous in cells; host or cells: CF15 human epithelial cells, homozygous delF508; conditions: 2 hrs, 100 μM
Procedure: The study of delF508-CFTR protein addressing is performed in the laboratory by using a combination of pharmacological, cellular imagery, biochemical and electrophysiological tests on CF15 human lung epithelial cells homozygous for the delF508 deletion. Results of immunoprecipitation and Western-Blot analyses of non mutated CFTR from wild-type CHO cells and delF508 cells treated for 2 hrs with 100 μM of the tested compound (FIG. 3C) or untreated cells (control). CF15 cells treated for 24 hrs at 27° C. (FIG. 3B) or for 2 hrs with 10 μM thapsigargin (TG) were used as a positive control.

wild-type CFTR [3] = target: T2, wild-type CFTR (Homo sapiens, UniProt P13569); test: Iodide efflux test of CFTR activation in Calu-3 cells; assay type: cell-based; conditions: n=8, controls forskoline 5 μM and MPB-91 250 μM
Procedure: The controls used were forskoline (5 μM, n=8) and MPB-91 (250 μM, n=8).

CHO-WT cells = test: MTT cytotoxicity test; assay type: cell-based, Chinese Hamster; conditions: 2 hrs incubation, different concentrations
Procedure: The MTT cytotoxicity test is a […] test based on the capacity of mitochondrial dehydrogenases to metabolise MTT (a yellow tetrazolium salt) into formazan (purple). The absorbance is proportional to the concentration of converted dye and can then be measured by spectrophotometry. The cells are incubated in 96-well microplates in the presence of the agent to be tested for 2 hours. Three controls are performed: 100% live cells (cells without any agent); 0% live cells (cells left under normal atmosphere); blank (medium without cells). The cells are rinsed with RPMI medium without phenol red in order for the colour of the medium not to interfere with absorbance measurements. The cells are then incubated for 4 hours with 100 μl RPMI solution supplemented with MTT (0.5 mg/ml). The medium is eliminated and 100 μl DMSO is added to dissolve the converted dye (formazan). The absorbance is measured by spectrophotometry at 570 nm (purple); 630 nm (background noise). In order to ignore the background noise, the following calculation is performed: DOreelle=DO570nm−DO630nm.
In order to test the cytotoxicity of roscovitine, CHO-WT cells were incubated for 2 hrs with different concentrations of inhibitors before being tested for viability with MTT.

delF508-CFTR [4] = target: T1, delF508-CFTR; test: Immunolocalisation of delF508-CFTR in CF15 cells (confocal); assay type: cell-based; parameters: CF15 human lung epithelial cells homozygous for the delF508 deletion; endogenous in cells; host or cells: CF15 human epithelial cells, homozygous delF508; conditions: 2 hrs treatment, 100 μM
Procedure: Immunolabelling allows visualising the cellular localisation of the CFTR protein by means of an anti-CFTR primary antibody (Ab), and a secondary Cy3-labelled fluorescent antibody directed against the primary antibody. The cells are first seeded on cover slips in an appropriate culture medium. The cells are then washed 3 times with TBS (157 mM NaCl, […] Tris base, pH 7.4) for 5 min. each time and then fixed by adding 3% TBS-paraformaldehyde for 20 min. After 3 washes with TBS (5 min. each), the cells are incubated with 0.1% TBS-triton (10 min) to make holes in the cell membrane, and then washed 3 times with TBS before being exposed to 0.5% TBS-BSA-0.05% saponin for 1 hr. The cells are then incubated with the primary anti-CFTR C terminal antibody (2 μg/ml) for 1 hr. The cells are washed 3 times (5 min. each) with TBS-BSA-saponin before incubating with the GAM-cy3 secondary antibody (1/400) for 1 hr. After 2 TBS washes (5 min. each), the nuclei are labelled by incubating with Topro3 (1/1,000) for 5 min. Finally, the cover slips can be mounted on a glass slide after 3 final TBS washes (5 min. each). The slides are analysed with a confocal microscope (Bio-Rad) using laser excitation at appropriate wave-lengths. In order to differentiate Cy3 from Topro3 labelling, the colour of the Topor3 fluorescence has been changed to blue (colour of the nuclei). […]

wild-type CFTR [5] = target: T2, wild-type CFTR; test: Iodide efflux test of CFTR addressing in Calu-3 cells; assay type: cell-based; conditions: Calu-3 cells treated 2 hrs, 100 μM
delF508-CFTR [6] = target: T1, delF508-CFTR; test: Competition between roscovitine and ER chaperone machinery (iodide efflux); assay type: cell-based; parameters: CF15 human lung epithelial cells homozygous for the delF508 deletion; endogenous in cells; host or cells: CF15 human epithelial cells, homozygous delF508
Source text: The competition between CFTR-T1 and the ER chaperone machinery is illustrated by FIGS. 6A and 6B.
The table below summarises the roscovitine and ER chaperone machinery competition experiments performed by the iodide efflux technique. • inhibition, ** P<0.01, * P<0.1, ns P>0.1 (Student's t-test)

[7] = read-out: Ec50 (concentration giving 50% of maximal efficiency) for delF508 addressing, CF15 cells, 2 hrs at 37° C., stimulation with 10 μM Forskoline+30 μM Genisteine, n=4

T1 sequence (P13569 with tags, fused parts or gaps DEL508-508): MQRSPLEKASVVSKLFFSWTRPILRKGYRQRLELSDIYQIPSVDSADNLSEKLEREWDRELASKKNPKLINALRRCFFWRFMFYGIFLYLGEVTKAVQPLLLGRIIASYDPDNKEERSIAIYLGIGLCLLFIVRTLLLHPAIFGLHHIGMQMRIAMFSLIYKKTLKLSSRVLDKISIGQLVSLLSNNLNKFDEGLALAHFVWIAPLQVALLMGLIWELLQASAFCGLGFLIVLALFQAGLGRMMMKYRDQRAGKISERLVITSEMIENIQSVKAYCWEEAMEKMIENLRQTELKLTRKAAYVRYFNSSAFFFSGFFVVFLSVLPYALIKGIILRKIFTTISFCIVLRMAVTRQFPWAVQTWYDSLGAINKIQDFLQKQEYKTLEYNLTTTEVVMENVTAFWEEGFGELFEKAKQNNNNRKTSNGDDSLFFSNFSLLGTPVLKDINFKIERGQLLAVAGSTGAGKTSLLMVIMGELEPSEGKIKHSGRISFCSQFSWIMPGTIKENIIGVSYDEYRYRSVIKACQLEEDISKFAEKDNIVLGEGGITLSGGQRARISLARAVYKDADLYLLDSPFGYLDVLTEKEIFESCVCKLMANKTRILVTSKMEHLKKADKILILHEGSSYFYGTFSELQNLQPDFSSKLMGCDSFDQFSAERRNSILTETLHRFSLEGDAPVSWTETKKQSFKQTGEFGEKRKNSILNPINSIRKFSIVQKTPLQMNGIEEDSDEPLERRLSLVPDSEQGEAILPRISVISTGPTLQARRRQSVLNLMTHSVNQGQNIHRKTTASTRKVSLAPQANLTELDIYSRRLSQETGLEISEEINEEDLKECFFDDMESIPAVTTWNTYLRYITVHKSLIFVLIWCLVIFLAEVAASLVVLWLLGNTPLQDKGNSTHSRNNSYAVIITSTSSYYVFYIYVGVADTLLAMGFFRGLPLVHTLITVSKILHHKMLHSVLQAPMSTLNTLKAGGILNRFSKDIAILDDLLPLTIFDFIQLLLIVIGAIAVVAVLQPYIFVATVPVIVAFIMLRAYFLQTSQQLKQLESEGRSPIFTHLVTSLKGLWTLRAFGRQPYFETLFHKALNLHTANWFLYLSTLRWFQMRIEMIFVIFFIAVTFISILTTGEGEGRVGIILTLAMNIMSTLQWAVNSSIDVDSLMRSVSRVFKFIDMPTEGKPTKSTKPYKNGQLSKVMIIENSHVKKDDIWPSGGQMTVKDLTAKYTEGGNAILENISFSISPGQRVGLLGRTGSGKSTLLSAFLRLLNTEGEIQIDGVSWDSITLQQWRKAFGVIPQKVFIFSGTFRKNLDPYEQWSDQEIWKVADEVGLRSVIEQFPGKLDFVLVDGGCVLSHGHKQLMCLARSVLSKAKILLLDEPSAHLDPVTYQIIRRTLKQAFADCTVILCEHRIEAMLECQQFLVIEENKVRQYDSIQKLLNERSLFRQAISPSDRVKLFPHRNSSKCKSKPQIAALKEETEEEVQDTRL
T2 sequence (P13569 whole entry): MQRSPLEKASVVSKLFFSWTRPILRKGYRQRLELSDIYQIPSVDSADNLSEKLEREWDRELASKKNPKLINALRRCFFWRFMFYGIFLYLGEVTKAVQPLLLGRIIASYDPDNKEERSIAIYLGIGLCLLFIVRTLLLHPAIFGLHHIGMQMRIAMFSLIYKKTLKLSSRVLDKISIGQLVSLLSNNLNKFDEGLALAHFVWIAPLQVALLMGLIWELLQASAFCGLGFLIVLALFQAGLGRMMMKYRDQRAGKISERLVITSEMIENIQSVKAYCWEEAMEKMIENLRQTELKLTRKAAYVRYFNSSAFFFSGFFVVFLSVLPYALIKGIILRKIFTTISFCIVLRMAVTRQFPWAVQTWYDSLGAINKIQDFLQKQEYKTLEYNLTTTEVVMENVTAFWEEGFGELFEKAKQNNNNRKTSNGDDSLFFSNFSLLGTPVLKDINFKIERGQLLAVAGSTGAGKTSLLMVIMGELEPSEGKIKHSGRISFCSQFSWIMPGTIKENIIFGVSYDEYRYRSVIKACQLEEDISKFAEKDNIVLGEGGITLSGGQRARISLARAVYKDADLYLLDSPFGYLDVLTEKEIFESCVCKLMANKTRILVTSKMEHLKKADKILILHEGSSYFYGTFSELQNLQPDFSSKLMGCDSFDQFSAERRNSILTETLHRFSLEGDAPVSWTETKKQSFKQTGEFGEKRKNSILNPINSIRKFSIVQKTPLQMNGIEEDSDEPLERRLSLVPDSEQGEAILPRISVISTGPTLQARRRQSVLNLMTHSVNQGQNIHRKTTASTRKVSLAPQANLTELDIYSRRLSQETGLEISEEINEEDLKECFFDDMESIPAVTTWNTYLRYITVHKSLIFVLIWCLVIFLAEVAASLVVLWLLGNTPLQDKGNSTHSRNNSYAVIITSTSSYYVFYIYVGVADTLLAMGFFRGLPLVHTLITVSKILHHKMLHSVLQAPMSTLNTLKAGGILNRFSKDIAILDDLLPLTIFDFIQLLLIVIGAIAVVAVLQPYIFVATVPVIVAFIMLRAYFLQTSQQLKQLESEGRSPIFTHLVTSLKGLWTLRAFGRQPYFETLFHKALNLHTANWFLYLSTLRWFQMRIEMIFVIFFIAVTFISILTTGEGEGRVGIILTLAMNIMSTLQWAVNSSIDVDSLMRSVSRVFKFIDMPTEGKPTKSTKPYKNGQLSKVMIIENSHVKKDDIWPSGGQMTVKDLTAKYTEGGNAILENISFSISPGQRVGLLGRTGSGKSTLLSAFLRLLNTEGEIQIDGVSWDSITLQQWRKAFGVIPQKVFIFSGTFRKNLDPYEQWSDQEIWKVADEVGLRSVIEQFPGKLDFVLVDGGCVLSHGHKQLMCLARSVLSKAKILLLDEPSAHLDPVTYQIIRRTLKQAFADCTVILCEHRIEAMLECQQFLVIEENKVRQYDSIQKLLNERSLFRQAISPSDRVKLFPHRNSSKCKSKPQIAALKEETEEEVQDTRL

Compound	EC50 (delF508-CFTR [1]; [7]) [µM]	EC50 (delF508-CFTR [1]) [µM]	Function of readdressed delF508-CFTR (iodide efflux and patch-clamp on whole cells) (delF508-CFTR [1])	Treatment time for maximal correction of delF508-CFTR chloride ion channel function (delF508-CFTR [1]; CF15 cells, 100 μM) [h]	Restoration of delF508 addressing and ion transport function (delF508-CFTR [1]; CF15 cells, 2 hrs at 37° C., two forms (R and S))	Maturation of delF508-CFTR (band C in Western-Blot) (delF508-CFTR [2])	Maturation of delF508-CFTR (band C in Western-Blot) (delF508-CFTR [2]; listed as CFTR-T1)	Activation of wild-type CFTR or other anionic transporter (wild-type CFTR [3])	Cell viability (MTT) (CHO-WT cells)	Localisation of delF508-CFTR protein (delF508-CFTR [4])	CFTR activity after treatment (wild-type CFTR addressing) (wild-type CFTR [5])	Competition with inhibitors of the chaperone and degradation machinery (delF508-CFTR [6])	Effect of Brefeldine A (BFA) on the compound's action (delF508-CFTR [6]; BFA, inhibitor of ERGIC vesicular traffic)	Effect of MG132 on the compound's action (delF508-CFTR [6]; MG132, proteasome inhibitor)
CC[C@H](CO)Nc1nc(NCc2ccccc2)c2ncn(C(C)C)c2n1 [R-Roscovitine, 2-(R)-(1-ethyl-2-hydroxyethylamino)-6-benzylamino-9-isopropylpurine]	34 ± 1.9	–	–	–	–	–	–	–	–	–	–	–	–	–
CC[C@H](CO)Nc1nc(NCc2ccccc2)c2ncn(C(C)C)c2n1 [roscovitine]	–	56	functional	2	restores addressing of the delF508 protein	appearance of the mature CFTR band	maturation of delF508-CFTR (band C appears in the Western-Blot)	not found to be an activator	viable at all concentrations	localised in the plasma membrane compartment; also recorded: correct delF508-CFTR relocation to the plasma membrane; also recorded: allowed relocation of the delF508-CFTR protein to the membrane	not significantly different from the controls	competed with inhibitors of calnexin/delF508-CFTR binding as well as inhibitors of the degradation pathway	inhibition	no modulation is observed
CC[C@@H](CO)Nc1nc(NCc2ccccc2)c2ncn(C(C)C)c2n1 [S-Roscovitine, 2-(S)(1-ethyl-2-hydroxyethylamino)-6-benzylamino-9-isopropylpurine]	32 ± 1.4	–	–	–	–	–	–	–	–	–	–	–	–	–
